Experimental data from patent publication US10786488B2, “Substituted quinolizine derivatives useful as HIV integrase inhibitors” (MERCK SHARP & DOHME CORP., priority 2017, dated 2020).

Assays:
[1] = Stability of compounds in whole blood (human); type: in vitro ADME; details: 1 μM compound, 37° C.
Description: (§1) Selected compounds of the present invention (1 μM) were incubated with whole blood (with heparin) from rat, dog and human. The samples were incubated for 0, 0.5, 1 and 2 hours in a 95% humidified incubator at 37° C. with 5% CO2. At each time point, the samples were quenched with acetonitrile containing an appropriate internal standard. The samples were then vortex-mixed and centrifuged at 2,500×g for 20 minutes. The supernatants were transferred to clean plates and analyzed using LC-MS/MS. The stability of the analyte was assessed by determining the percentage of drug loss over the course of time.

[2] = Stability of compounds in whole blood (dog); type: in vitro ADME; details: 1 μM compound, 37° C.
Description: as §1

[3] = Stability of compounds in whole blood (rat); type: in vitro ADME; details: 1 μM compound, 37° C.
Description: as §1

[4] = Dog pharmacokinetic studies, oral administration to fasted Beagle dogs; type: in vivo; details: dose equivalent to 10 mg/kg of Compound Int-1
Description: Male Beagle Dogs (Marshall Farms) were used for the pharmacokinetic studies. Studies were conducted under a protocol approved by the WP-IACUC (Animal Procedure Statement #2018-600787-MAR). Following overnight-fasting, dogs were dosed orally with either Compound Int-1 at 10 mg/kg or one of the respective prodrugs at the dose equivalent to 10 mg/kg of Compound Int-1 formulated as a suspension in Orablend® SF. Dosing was followed by 15 mL water rinse via oral gavage. Food was returned at 4 hours after dosing. Blood (0.5-mL) was drawn at pre-dose, 0.25, 0.5, 1, 2, 4, 6, 24, 30, 48, 54 and 72 hours post-dosing into EDTA-coated collection tubes containing 25 μL of 2 mM dichlorvos solution in water. The tubes were kept chilled prior to blood collection and throughout plasma separation. The plasma was separated by centrifugation (2 minutes at 10000 g). After processing, 10 uL of 10% formic acid was added to each 200 uL of plasma. Acidified plasma samples were immediately frozen and kept at −70° C. until analysis by LC-MS/MS.
Mean [±SD] Pharmacokinetic Parameters for Compounds after Oral Administration to Fasted Beagle Dogs at Dose Equivalent to 10 mg/kg of Compound Int-1.

Remaining at 2 hours [1] | Remaining at 2 hours [2] | Remaining at 2 hours [3] | absorption versus metabolite Compound Int-1 [4] | SMILES
24% | 19% | 0% |  | CCOC(=O)Oc1c2n(cc(C(=O)NCc3ccc(F)cc3F)c1=O)C[C@@H]1OCCC[C@]1(C)C2=O [Compound 1]
 |  |  | significant increase in absorption | CCOC(=O)OCOc1c2n(cc(C(=O)NCc3ccc(F)cc3F)c1=O)C[C@@H]1OCCC[C@]1(C)C2=O [Compound 4]
 |  |  | significant increase in absorption | CC(C)OC(=O)OCOc1c2n(cc(C(=O)NCc3ccc(F)cc3F)c1=O)C[C@@H]1OCCC[C@]1(C)C2=O [Compound 3]
